Experimental data from PubChem BioAssay (NCI).
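Results reflect a 48-hour exposure of cells in 96-well plates to compound at five concentrations. GI50 = concentration required for 50% inhibition of growth. TGI is the concentration that stops growth completely.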

What follows are compounds tested on SW-620 colon (assay: growth of human tumour cells (NCI), 48 h).
`Cc1cc(N(CCC#N)CCC#N)ccc1/C=C1N=C(/C=C\c2ccccc2)N(c2ccc(Cl)cc2)C\1=O` gave a TGI greater than 100 µM. For `O=C([CH-]C(=O)c1ccccc1)c1ccccc1.O=C([CH-]C(=O)c1ccccc1)c1ccccc1.[OH-].[OH-].[Ti+4]`, the GI50 was 49 µM and the TGI was greater than 100 µM. `COc1cc(-c2cc(-c3cc([N+](=O)[O-])c(/C=N/NC(=O)c4ccncc4)o3)ccc2OC)ccc1C` was tested, and the TGI was greater than 100 µM. `Fc1cccc(C2SCc3nc4ccccc4n32)c1F` (centres undefined) was tested, and the TGI was greater than 100 µM. Work on `O=C(N/N=C/c1cc(Cl)cc(Cl)c1O)c1ccccc1O` yielded a TGI of 21.5 µM.

Each compound was assayed on DMS 273 small cell lung (assay: growth of human tumour cells (NCI), 48 h).
`Cn1c2ccccc2n2c(=O)c3c(c(C#N)c12)CCCC3` gave a TGI greater than 100 µM. With `Cc1cc(N(CCC#N)CCC#N)ccc1/C=C1N=C(/C=C\c2ccccc2)N(c2ccc(Cl)cc2)C\1=O` the TGI was greater than 100 µM. In the case of `Fc1cccc(C2SCc3nc4ccccc4n32)c1F` (centres undefined), the TGI is reported as 50.5 µM.

What follows are compounds tested on UACC-62 melanoma (assay: growth of human tumour cells (NCI), 48 h).
In the case of `O=C([CH-]C(=O)c1ccccc1)c1ccccc1.O=C([CH-]C(=O)c1ccccc1)c1ccccc1.[OH-].[OH-].[Ti+4]`, the GI50 is reported as 66.5 µM and the TGI is reported as greater than 100 µM. Compound `COc1cc(-c2cc(-c3cc([N+](=O)[O-])c(/C=N/NC(=O)c4ccncc4)o3)ccc2OC)ccc1C` has a TGI greater than 100 µM. `Fc1cccc(C2SCc3nc4ccccc4n32)c1F` (centres undefined) showed a TGI greater than 100 µM. With `O=C(N/N=C/c1cc(Cl)cc(Cl)c1O)c1ccccc1O` the TGI was 3.89 µM.

These compounds were tested on MALME-3M melanoma (assay: growth of human tumour cells (NCI), 48 h).
In the case of `Cn1c2ccccc2n2c(=O)c3c(c(C#N)c12)CCCC3`, the TGI is reported as greater than 100 µM. Compound `Cc1cc(N(CCC#N)CCC#N)ccc1/C=C1N=C(/C=C\c2ccccc2)N(c2ccc(Cl)cc2)C\1=O` has a TGI greater than 72 µM. Compound `O=C([CH-]C(=O)c1ccccc1)c1ccccc1.O=C([CH-]C(=O)c1ccccc1)c1ccccc1.[OH-].[OH-].[Ti+4]` has a GI50 greater than 100 µM and a TGI greater than 100 µM. `COc1cc(-c2cc(-c3cc([N+](=O)[O-])c(/C=N/NC(=O)c4ccncc4)o3)ccc2OC)ccc1C` was tested, and the TGI was greater than 100 µM. Work on `Fc1cccc(C2SCc3nc4ccccc4n32)c1F` (centres undefined) yielded a TGI greater than 100 µM. In the case of `O=C(N/N=C/c1cc(Cl)cc(Cl)c1O)c1ccccc1O`, the GI50 is reported as 2.8 µM and the TGI is reported as 11.6 µM.

Each compound was assayed on OVCAR-3 ovarian (assay: growth of human tumour cells (NCI), 48 h).
In the case of `Cn1c2ccccc2n2c(=O)c3c(c(C#N)c12)CCCC3`, the TGI is reported as greater than 100 µM. Work on `Cc1cc(N(CCC#N)CCC#N)ccc1/C=C1N=C(/C=C\c2ccccc2)N(c2ccc(Cl)cc2)C\1=O` yielded a TGI greater than 100 µM. With `O=C([CH-]C(=O)c1ccccc1)c1ccccc1.O=C([CH-]C(=O)c1ccccc1)c1ccccc1.[OH-].[OH-].[Ti+4]` the GI50 was 51.1 µM and the TGI was greater than 100 µM. Work on `COc1cc(-c2cc(-c3cc([N+](=O)[O-])c(/C=N/NC(=O)c4ccncc4)o3)ccc2OC)ccc1C` yielded a TGI greater than 100 µM. For `Fc1cccc(C2SCc3nc4ccccc4n32)c1F` (centres undefined), the TGI was greater than 100 µM. In the case of `O=C(N/N=C/c1cc(Cl)cc(Cl)c1O)c1ccccc1O`, the TGI is reported as 1.65 µM.

The compounds below were run on NCI-H522 lung (assay: growth of human tumour cells (NCI), 48 h).
`Cc1cc(N(CCC#N)CCC#N)ccc1/C=C1N=C(/C=C\c2ccccc2)N(c2ccc(Cl)cc2)C\1=O` gave a TGI greater than 100 µM. In the case of `O=C([CH-]C(=O)c1ccccc1)c1ccccc1.O=C([CH-]C(=O)c1ccccc1)c1ccccc1.[OH-].[OH-].[Ti+4]`, the GI50 is reported as 24.2 µM and the TGI is reported as 69.7 µM. Work on `COc1cc(-c2cc(-c3cc([N+](=O)[O-])c(/C=N/NC(=O)c4ccncc4)o3)ccc2OC)ccc1C` yielded a TGI greater than 100 µM. `Fc1cccc(C2SCc3nc4ccccc4n32)c1F` (centres undefined) showed a TGI greater than 100 µM. Compound `O=C(N/N=C/c1cc(Cl)cc(Cl)c1O)c1ccccc1O` has a TGI of 3.18 µM.

The compounds below were run on A549 NSCLC (assay: growth of human tumour cells (NCI), 48 h).
`Cn1c2ccccc2n2c(=O)c3c(c(C#N)c12)CCCC3` gave a TGI greater than 100 µM. With `Cc1cc(N(CCC#N)CCC#N)ccc1/C=C1N=C(/C=C\c2ccccc2)N(c2ccc(Cl)cc2)C\1=O` the TGI was greater than 100 µM. `O=C([CH-]C(=O)c1ccccc1)c1ccccc1.O=C([CH-]C(=O)c1ccccc1)c1ccccc1.[OH-].[OH-].[Ti+4]` gave a GI50 greater than 100 µM and a TGI greater than 100 µM. `COc1cc(-c2cc(-c3cc([N+](=O)[O-])c(/C=N/NC(=O)c4ccncc4)o3)ccc2OC)ccc1C` was tested, and the TGI was greater than 100 µM. Work on `Fc1cccc(C2SCc3nc4ccccc4n32)c1F` (centres undefined) yielded a TGI greater than 100 µM. Compound `O=C(N/N=C/c1cc(Cl)cc(Cl)c1O)c1ccccc1O` has a GI50 of 1.45 µM and a TGI of 15.8 µM.

The compounds below were run on U251 CNS (assay: growth of human tumour cells (NCI), 48 h).
`Cn1c2ccccc2n2c(=O)c3c(c(C#N)c12)CCCC3` gave a TGI greater than 100 µM.
